Test results as given in ChEMBL document CHEMBL1201862, “PubChem BioAssay data set” (2004).
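Protocol summary: plate cells (96-well), add compound at 5 concentrations, incubate 48 h, interpolate endpoints linearly. The concentration for 50% growth inhibition is given as GI50.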 The source made the active and inactive calls. Rule as the data show it: active = GI50 up to about 1.1 µM and inactive = higher.

What was measured:
Assay in all cases: growth of human tumour cells (NCI), 48 h
LXFL 529 = test system: LXFL 529
SNB-78 = test system: SNB-78
XF498 = test system: XF498
DU-145 = test system: DU-145
MCF7 = test system: MCF7
PC-3 = test system: PC-3
BT-549 = test system: BT-549
HOP-18 = test system: HOP-18
RXF 631 = test system: RXF 631

Measured: GI50

CC1(C)OC[C@H](C(=N)OCc2ccccc2)O1
inactive: LXFL 529 > 100 µM | SNB-78 > 100 µM | XF498 > 100 µM

O=S1(=O)OCCOS(=O)(=O)C1Cc1cccc2ccccc12
inactive: DU-145 12 µM | MCF7 14.4 µM | PC-3 33.2 µM

CC1=C(SCCO)C(=O)c2ccccc2C1=O
inactive: BT-549 17.8 µM | DU-145 16 µM | MCF7 3.02 µM | PC-3 11.4 µM

Nc1n[nH]c2c1Cc1c(n(Cc3ccc(Cl)cc3)c3ccccc13)C(=O)N2
inactive: BT-549 16.5 µM | DU-145 12 µM | MCF7 10.3 µM | PC-3 11.2 µM

O=Cc1ccc2c(c1I)OCO2
inactive: HOP-18 > 100 µM | SNB-78 > 100 µM

O=C1C=CC=C/C1=C1\N=C(c2ccccc2OCC(=O)c2ccccc2)SS1
inactive: BT-549 46.1 µM | MCF7 > 100 µM

O=C1OC(CN2CCOCC2)CN1/N=C/c1ccc([N+](=O)[O-])o1 (configuration not stated) [FURALTADONE]
inactive: BT-549 86.1 µM | DU-145 73.3 µM | MCF7 46 µM | PC-3 54.2 µM

CSCCCNC(=O)c1csc(-c2csc(CCNC(=O)CNC(=O)CNC(=O)CNC(=O)OC(C)(C)C)n2)n1
inactive: BT-549 > 100 µM | DU-145 > 100 µM | MCF7 > 100 µM | PC-3 > 100 µM

COc1ccc2nc3c(C)cc4ccccc4n3c2c1
inactive: BT-549 > 100 µM | DU-145 > 100 µM | MCF7 51.5 µM | PC-3 46.3 µM

CC(=O)OCCOCn1cc(C=O)c2ccccc21
inactive: BT-549 > 100 µM | DU-145 > 100 µM | MCF7 > 100 µM | PC-3 > 100 µM

CC(C)(C)c1cc(C(=O)/C=C/c2ccc3c(c2)OCO3)cc(C(C)(C)C)c1O
inactive: BT-549 6.3 µM | DU-145 5.06 µM | MCF7 5.28 µM | PC-3 3.99 µM

CC(=O)/N=C1\N/C(=C/c2cc([N+](=O)[O-])ccc2O)CN1C
inactive: BT-549 > 100 µM | DU-145 > 100 µM | MCF7 > 100 µM | PC-3 > 100 µM

COc1ccc(-c2cc(C(=O)Nc3cc(C(F)(F)F)cc(C(F)(F)F)c3)c3ccccc3n2)cc1
inactive: HOP-18 17.7 µM | LXFL 529 8.83 µM | SNB-78 19.5 µM | XF498 7.31 µM

CCOc1ncn(-c2ccc(NC(=S)Nc3cccc(O)c3)cc2)n1
inactive: BT-549 > 100 µM | DU-145 > 100 µM | MCF7 > 100 µM | PC-3 > 100 µM

CCOC(=O)CCc1c(C)c2c(O)cc(O)cc2oc1=O
inactive: HOP-18 > 80.9 µM | MCF7 > 100 µM | SNB-78 > 100 µM | XF498 > 100 µM

C=CCN(C)CN(C)c1nc(N(C)C)nc(N(C)C)n1
inactive: HOP-18 > 100 µM | LXFL 529 26.1 µM | SNB-78 > 100 µM

O=c1oc2ccccc2n1P(=O)(Oc1ccc(Cl)cc1)n1c(=O)oc2ccccc21
inactive: HOP-18 > 100 µM | SNB-78 > 100 µM

COc1cc(OC)cc(Oc2nc3cc(F)c(F)cc3nc2-c2ccccc2)c1
inactive: BT-549 > 100 µM | DU-145 > 100 µM | MCF7 > 100 µM | PC-3 > 100 µM

CC12CCC(=O)N1c1cnccc1N2 (configuration not stated)
inactive: LXFL 529 > 100 µM | SNB-78 > 100 µM

C=C1CC[C@@H](Br)C(C)(C)[C@]12CCC(C)(O)C(Cl)C2 (some centres not stated)
inactive: HOP-18 18.8 µM | RXF 631 18.5 µM | SNB-78 52.5 µM

N/C(=N\O)N/N=C/c1ncccc1O
inactive: HOP-18 22.8 µM | MCF7 2.07 µM | SNB-78 > 88.5 µM | XF498 12.4 µM

CCOC(=O)/C=C1/C(CCCOCc2ccccc2)C2CCCC23CC2(CCN13)OCCO2 (configuration not stated)
inactive: HOP-18 21.3 µM | LXFL 529 22.2 µM | RXF 631 30.1 µM | SNB-78 25.9 µM | XF498 12.3 µM

CN1C(=O)C(C#N)C2C[C@@]1(C)Oc1ccccc12 (some centres not stated)
inactive: BT-549 64.9 µM | DU-145 > 100 µM | MCF7 > 100 µM | PC-3 > 100 µM

CC(=O)c1ccc2c(c1)oc(=O)n2CCN1CCCCC1
inactive: BT-549 > 100 µM | DU-145 > 100 µM | MCF7 > 100 µM | PC-3 > 100 µM

CC(=O)OC1CCn2nnc(CO)c21 (configuration not stated)
inactive: HOP-18 > 100 µM | LXFL 529 > 100 µM | SNB-78 > 100 µM | XF498 > 100 µM

CCCCC(CC)C(=O)Oc1ccc(C(=O)c2ccccc2)c(O)c1 (configuration not stated)
inactive: BT-549 39.1 µM | DU-145 57 µM | MCF7 60.4 µM | PC-3 51.5 µM

N#Cc1c(Cl)cc(Cl)n2c1nc1ccccc12
inactive: BT-549 6.38 µM | DU-145 14.3 µM | MCF7 4.66 µM | PC-3 14.3 µM

N#Cc1c(N)c2c(c(-c3ccccc3)c1-c1ccccc1)C(=O)N(NC(=S)Nc1ccccc1)C2=O
inactive: BT-549 89.5 µM | DU-145 > 100 µM | MCF7 60.3 µM | PC-3 30.5 µM

Nc1c(-c2cn(Cc3ccccc3)c3ccccc23)[n+]([O-])c2ccccc2[n+]1[O-]
inactive: LXFL 529 23.9 µM | SNB-78 53.8 µM | XF498 12.6 µM

N#C/C(=C1\OC(=O)C(c2ccc(Br)cc2)=C1O)c1ccc(Br)cc1
inactive: HOP-18 13.5 µM | LXFL 529 10.2 µM | RXF 631 15.4 µM | SNB-78 12.3 µM | XF498 12.9 µM

CCOC(=O)NC(Nc1ccc(C)cc1)(C(F)(F)F)C(F)(F)F
inactive: BT-549 > 100 µM | DU-145 > 100 µM | MCF7 > 100 µM | PC-3 > 100 µM

Nc1c(S(=O)(=O)O)cc(S(=O)(=O)O)c2ccc(/N=N/c3ccc(/C=C/c4ccc(/N=N/c5ccc6c(S(=O)(=O)O)cc(S(=O)(=O)O)c(N)c6c5O)cc4S(=O)(=O)O)c(S(=O)(=O)O)c3)c(O)c12
inactive: HOP-18 > 100 µM | MCF7 > 100 µM | SNB-78 > 83.4 µM | XF498 > 46.6 µM
